Source: the Kinase Knowledgebase extract (Sharma et al. 2016)

Target: EGFR (UniProt P00533)
Sequence (P00533 whole entry, looked up): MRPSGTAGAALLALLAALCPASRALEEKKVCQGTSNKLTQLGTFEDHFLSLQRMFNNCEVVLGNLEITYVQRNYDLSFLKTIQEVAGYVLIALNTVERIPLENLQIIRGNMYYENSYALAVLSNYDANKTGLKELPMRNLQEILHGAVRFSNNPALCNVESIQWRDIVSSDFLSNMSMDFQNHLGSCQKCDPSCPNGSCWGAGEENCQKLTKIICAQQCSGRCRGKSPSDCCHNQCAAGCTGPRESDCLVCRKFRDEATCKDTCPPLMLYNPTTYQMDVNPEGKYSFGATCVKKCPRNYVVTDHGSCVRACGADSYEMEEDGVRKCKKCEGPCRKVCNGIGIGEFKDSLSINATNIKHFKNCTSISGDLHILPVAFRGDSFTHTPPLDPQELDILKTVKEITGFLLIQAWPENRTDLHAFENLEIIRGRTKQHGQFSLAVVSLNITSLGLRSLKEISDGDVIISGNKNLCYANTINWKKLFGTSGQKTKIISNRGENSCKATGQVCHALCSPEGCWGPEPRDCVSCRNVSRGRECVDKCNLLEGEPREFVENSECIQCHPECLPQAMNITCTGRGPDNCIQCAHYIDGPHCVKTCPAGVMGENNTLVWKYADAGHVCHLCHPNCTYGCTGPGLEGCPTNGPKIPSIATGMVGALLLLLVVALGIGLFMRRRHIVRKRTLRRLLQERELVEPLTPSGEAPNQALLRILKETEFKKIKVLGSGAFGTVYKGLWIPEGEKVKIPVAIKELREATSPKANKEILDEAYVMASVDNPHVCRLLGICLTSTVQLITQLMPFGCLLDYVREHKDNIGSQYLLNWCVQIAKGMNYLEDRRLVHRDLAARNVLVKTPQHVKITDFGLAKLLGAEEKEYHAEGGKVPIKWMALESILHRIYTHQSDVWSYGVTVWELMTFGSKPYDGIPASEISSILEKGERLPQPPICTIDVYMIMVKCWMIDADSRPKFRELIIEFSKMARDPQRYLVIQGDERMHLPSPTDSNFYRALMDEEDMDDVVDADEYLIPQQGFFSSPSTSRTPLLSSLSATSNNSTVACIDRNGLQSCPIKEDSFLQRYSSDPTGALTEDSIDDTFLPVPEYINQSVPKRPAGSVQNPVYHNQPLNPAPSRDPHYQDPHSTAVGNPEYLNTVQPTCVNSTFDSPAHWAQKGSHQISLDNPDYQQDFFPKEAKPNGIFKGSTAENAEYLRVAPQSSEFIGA

Structure (SMILES)	IC50
CC[C@@H](Nc1ncnc2cc(OC)c(OC)cc12)c1ccccc1	234 nM
COc1cc2ncnc(N[C@@H](C)c3ccccc3)c2cc1OC	3760 nM
c1ccc(CCNc2ncnc3ccccc23)cc1	4100 nM
COc1cc2ncnc(N[C@H](C)c3ccccc3)c2cc1OC	1.6 nM
COc1cc2ncnc(N[C@H](C)c3cccc4ccccc34)c2cc1OC	139 nM
COc1cc2ncnc(NC3CCc4ccccc43)c2cc1OC (stereo not given)	1000 nM

Other lines, results leading:

IC50	Structure (SMILES)
148 nM	COc1cc2ncnc(NCc3cccc4ccccc34)c2cc1OC
58 nM	COc1ccc2c(NCc3ccccc3)ncnc2c1
4000 nM	COc1ccc2c(N[C@@H](C)c3ccccc3)ncnc2c1
> 10000 nM	C[C@H](Nc1ncnc2ccccc12)c1ccccc1
120 nM	COc1ccc2c(Nc3ccccc3)ncnc2c1
10 nM	COc1cc2ncnc(NCc3ccccc3)c2cc1OC
86 nM	C[C@@H](Nc1ncnc2ccccc12)c1ccccc1
320 nM	c1ccc(CNc2ncnc3ccccc23)cc1
29 nM	COc1ccc2c(N[C@H](C)c3ccccc3)ncnc2c1
